Data reported in patent US8658665B2, “3,6-disubstituted xanthylium salts and use thereof in treatment of tauopathies” (WisTa Laboratories Ltd., priority 2008, dated 2014).
Structures can show the parent of a compound that is named as a salt.

Columns and labels:
[1] = target: T1, tau-tau binding: truncated tau (residues 297-390; dGA) on solid phase, full-length tau (T40) in aqueous phase (Homo sapiens, UniProt P10636); assay: In vitro assay for establishing B50 (tau-tau binding); conditions: concentration required to inhibit tau-tau binding by 50%; mean ± SE, number of replications in parentheses; NE = no effect when tested to 500 μM
T1 construct: truncated tau (residues 297-390; dGA); full-length tau (T40) was added in the aqueous phase
T1 sequence (P10636 614-707): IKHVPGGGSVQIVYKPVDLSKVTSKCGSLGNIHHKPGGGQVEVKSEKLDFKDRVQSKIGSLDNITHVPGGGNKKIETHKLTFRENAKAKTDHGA
Excerpt: Briefly, a fragment of tau corresponding to the core repeat domain, which has been adsorbed to a solid phase substrate, is able to capture soluble full-length tau and bind tau with high affinity. This association confers stability against proteolytic digestion of the aggregated tau molecules.
The aqueous phase binding buffer contained 0.05% Tween-20 and 1% gelatine in phosphate-buffered saline (pH7.4).
The concentration of compound required to inhibit the tau-tau binding by 50% is referred to as the B50 value.

fibroblast cells (3T6) = conditions: for LD50: cell numbers after 24 hrs exposure, lactate dehydrogenase assay kit, mean ± SE, number of replications in parentheses; for RxI: therapeutic index, RxI=LD50/EC50
Experimental: Toxicity of the compounds described herein was assessed in the cell based assay used to assess EC50. Toxicity was measured by cell numbers after 24 hrs exposure to the compound using a lactate dehydrogenase assay kit TOX-7 (Sigma Biosciences) according to the manufacturer's instructions after lysis of remaining cells. Alternatively a kit from Promega UK (CytoTox 96) was used, again according to the manufacturer's instructions.
The therapeutic index (RxI) was calculated as follows: RxI=LD50/EC50.

[2] = system: fibroblast cells (3T6) expressing full-length tau (T40) and the 12 kD PHF-core tau fragment; assay: Cell-based assay for establishing EC50 (inhibition of generation of the 12 kD tau fragment)
Excerpt: In essence, fibroblast cells (3T6) express full-length tau (“T40”) under control of an inducible promotor, and low constitutive levels of the PHF-core tau fragment (12 kD fragment).
This is referred to as the EC50 value.

Structure (SMILES) | IC50 [1] [µM] | LD50 (fibroblast cells (3T6)) | EC50 [2] [µM] | RxI (fibroblast cells (3T6))
CN(C)c1ccc2nc3ccc(=[N+](C)C)cc-3[nH]c2c1 [N, 3,7-Bis(dimethylamino)phenazinium chloride] | 93.1 ± 17 | 136 ± 19.3 (4) μM | – | –
CCN(CC)c1ccc2nc3ccc(N(C)C)cc3nc2c1.Cl [AM, 3-Diethylamino-7-dimethylaminophenazinium chloride] | 634 | 93 ± 19 (6) μM | 1.1 ± 0.24 | 85
[Cl-].c1c2c3c(c4[o+]c5c6c7c(cc5cc14)CCCN7CCC6)CCCN3CCC2 [Compound A, 2,3,6,7,12,13,16,17-Octahydro-1H,5H,11H,15H-diquinolizino[1,9-bc:1′,9′-hi]xanthylium chloride] | 33.8 ± 5.2 | 19 ± 2.7 (22) μM | 0.0061 ± 0.0024 | 3115
Cc1cc(N(C)C)cc2[s+]c3cc(N(C)C)cc(C)c3nc12 [DMMTC, reference compound] | 3.4 ± 0.2 | 2.7 ± 1.2 (6) μM | 0.04 ± 0.004 | 67
O=[N+]([O-])[O-].c1cc2cc3ccc(N4CCCC4)cc3[o+]c2cc1N1CCCC1 [Compound AH, 3,6-Bis-pyrrolidino-xanthylium nitrate] | 129 ± 15.5 | 121 ± 52 (12) μM | 0.26 ± 0.073 | 465
CCN(CC)c1cc2oc3cc(N(CC)CC)cc4oc5cc(=[N+](CC)CC)cc6oc(c1)c2c(c34)c65 [AL, 2,6,10-tris-diethylamino-4,8,12-trioxatrianguleum hexafluorophosphate] | 8.5 ± 0.9 | 8 ± 4 (6) μM | 0.13 ± 0.07 | 62
Cl.Cl.c1cc2c(cc1N1CCCC1)Oc1cc(N3CCCC3)ccc1C2 [Compound AJ, 3,6-Bis-pyrrolidino xanthene dihydrochloride] | > 500 | 125 ± 57 (10) μM | 0.37 ± 0.1 | 334
Cl.Cl.c1cc2c(cc1N1CCOCC1)Oc1cc(N3CCOCC3)ccc1C2 [Compound AI, 3,6-Bis-morpholino xanthene dihydrochloride] | > 500 | 280 ± 121 (10) μM | 16 ± 11 | 17
CN(C)c1ccc2cc3ccc(N(C)C)cc3[s+]c2c1.[Cl-].[Cl-].[Cl-].[Zn+2] [L, 3,6-bis(dimethylamino)thioxanthylium zinc trichloride] | 21.7 ± 2.7 | 22 ± 8.6 (3) μM | 0.3 | 73
CN(C)c1ccc2nc3ccc(N(C)C)cc3[s+]c2c1 [MTC, reference compound] | – | – | 0.59 ± 0.04 | –
O=[N+]([O-])[O-].c1c2c3c(c4[o+]c5c6c7c(cc5cc14)CCCN7CCC6)CCCN3CCC2 [Compound B, 2,3,6,7,12,13,16,17-Octahydro-1H,5H,11H,15H-diquinolizino[1,9-bc:1′,9′-hi]xanthylium nitrate] | 254 ± 26.4 | 30.8 ± 4.6 (4) μM | – | 3802
CCN(CC)c1ccc2cc3ccc(N(CC)CC)cc3[s+]c2c1.[I-] [K, 3,6-Bis(diethylamino)thioxanthylium Iodide] | > 500 | 21.2 ± 12 (3) μM | 0.23 ± 0.13 | 91
CC[N+](CC)=c1ccc2nc3ccc(N(C)C)cc3oc-2c1 [AN, 3-Diethylamino-7-dimethylaminooxazinium perchlorate] | > 500 | 167 ± 29 (6) μM | 0.54 ± 0.08 | 309
CCN(CC)c1ccc2c(c1)Oc1cc(N(CC)CC)ccc1C2 [Compound H, 3,6-bis-diethylamino xanthene dihydrochloride] | > 500 | 113 ± 18 (11) μM | 0.054 ± 0.01 | 2093
CN(C)c1ccc2nc3ccc(=[N+](C)C)cc-3oc2c1 [O, 3,7-bis(dimethylamino)oxazinium chloride] | 190 ± 33.2 | 115 ± 17 (9) μM | 3.9 ± 3.5 | 29
CCN(CC)c1ccc2c(-c3ccc([N+](=O)[O-])cc3)c3ccc(N(CC)CC)cc3[o+]c2c1.O=[N+]([O-])[O-] [Compound AD, 3,6-Bis-diethylamino-9-(4-nitrophenyl)xanthylium nitrate] | – | 19 ± 9 (5) μM | 0.35 ± 0.1 | 54
CCN(CC)c1ccc(-c2c3ccc(=[N+](CC)CC)cc-3oc3cc(N(CC)CC)ccc23)cc1 [Compound AC] | 129 ± 11.9 | 14.5 ± 8.4 (8) μM | 1.43 ± 0.14 | 34
O=[N+]([O-])[O-].c1cc2cc3ccc(N4CCOCC4)cc3[o+]c2cc1N1CCOCC1 [Compound AF, 3,6-Bis-morpholino-xanthylium nitrate] | 187 ± 28.3 | 144 ± 67 (10) μM | 22 ± 4.2 | 7
CC1(C)CCN2CCC(C)(C)c3c4c(cc1c32)C=c1cc2c3c(c1O4)C(C)(C)CC[N+]=3CCC2(C)C [Compound AE, 1,1,7,7,11,11,17,17-Octamethyl-2,3,6,7,12,13,16,17-octahydro-1H,5H,11H,15H-diquinolizino[1,9-bc;1′,9′-hi]xanthylium nitrate] | 324 ± 87.1 | 21 ± 8 (7) μM | 0.051 ± 0.012 | 412
CCc1c2ccc(N(CC)CC)cc2[o+]c2cc(N(CC)CC)ccc12.[Cl-] [Compound J, 9-Ethyl-3,6-bis-diethylamino Xanthylium Chloride] | > 500 | 17 ± 3 (10) μM | 0.011 ± 0.006 | 1545
O=[N+]([O-])[O-].c1cc2cc3ccc(N4CCCCC4)cc3[o+]c2cc1N1CCCCC1 [Compound AG, 3,6-Bis-piperidino-xanthylium nitrate] | 257 ± 50.3 | 13.8 ± 6.2 (8) μM | 1.12 ± 0.75 | 12
Cl.Cl.c1cc2c(cc1N1CCCCC1)Oc1cc(N3CCCCC3)ccc1C2 [Compound AK, 3,6-Bis-piperidino xanthene dihydrochloride] | 284 ± 101 | 44 ± 26 (8) μM | 0.64 ± 0.27 | 69
FC(F)(F)C1=c2cc3c4c(c2Oc2c1cc1c5c2CCCN5CCC1)CCC[N+]=4CCC3 [C, 8-(trifluoromethyl)-2,3,5,6,11,12,14,15-octahydro-1H,4H,10H,13H-diquinolizino[9,9a,1-bc;9′,9a′1′-hi]xanthylium perchlorate] | 461 ± 130 | 5.99 ± 2.6 (4) μM | 0.47 | 13
